Results: US12338203B2 (TAISHO PHARMACEUTICAL CO., LTD., priority 2019, dated 2025)

molecular target: T1, human LPAR1 (Homo sapiens, UniProt Q92633); assay: Test Example 1: antagonism against response of LPA-induced increase in intracellular Ca2+ concentration in RH7777 cells stably expressing human LPAR1; assay type: cell-based; conditions: RH7777 cells stably expressing human LPAR1; Fluo-4 fluorescence, FDSS6000; read-out: IC50 value (concentration producing 50% antagonism against response of LPA-induced increase in intracellular Ca2+ concentration) (converted)
T1 construct: expressed in transfected cells
Experimental: (1) Preparation of RH7777 cells stably expressing human LPAR1
The human LPAR1 expression vector was transfected into RH7777 cells to acquire human LPAR1 expressing cells.
(2) Test of antagonism against response of LPA-induced increase in intracellular Ca^2+ concentration
Cells stably expressing human LPAR1 were used for a test of antagonism against response of LPA-induced increase in intracellular Ca^2+ concentration.
The cells were seeded onto the Poly-D-Lysine 96 well black plate and incubated overnight. […] 50 μL of the Basal Buffer (1×HBSS, 20 mM HEPES, 2.5 mM Probenecid, 0.05% BSA, 0.25 mg/mL Amaranth, pH 7.4) containing the test compound was added thereto, followed by incubation at 37° C. for 30 minutes. In FDSS6000 (Hamamatsu Photonics K.K.), LPAs were added, and the change in intracellular Ca^2+ concentration was detected using the fluorescence value of a wavelength of 540 nm by an excitation wavelength of 480 nm as an indicator. […] The Rmax under […] without the test compound was used as the control value. The Rmax under Basal Buffer stimulation with no LPAs or test compounds was used as the basal value.
The percentage (%) of increase in intracellular Ca^2+ concentration was calculated by dividing the value obtained by subtracting the basal value from Rmax in the presence of LPAs and each concentration of the test compound by the value obtained by subtracting the basal value from the control value. The concentration of each test compound was plotted on the X axis and the percentage (%) of increase in intracellular Ca^2+ concentration was plotted on the Y axis, and the IC50 value was calculated by nonlinear regression using XLfit.

T1 sequence (Q92633 whole entry): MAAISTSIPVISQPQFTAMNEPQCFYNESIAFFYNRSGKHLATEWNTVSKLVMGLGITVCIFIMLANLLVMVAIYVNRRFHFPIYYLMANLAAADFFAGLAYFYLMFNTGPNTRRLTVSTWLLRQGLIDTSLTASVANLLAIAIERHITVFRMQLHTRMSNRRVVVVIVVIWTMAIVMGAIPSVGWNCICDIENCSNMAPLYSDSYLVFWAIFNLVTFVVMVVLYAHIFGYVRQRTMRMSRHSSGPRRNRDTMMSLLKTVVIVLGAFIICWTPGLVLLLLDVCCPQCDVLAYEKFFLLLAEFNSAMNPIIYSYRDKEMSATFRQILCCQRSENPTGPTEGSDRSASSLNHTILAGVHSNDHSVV

| SMILES | IC50 |
| --- | --- |
| CCOc1cc(C(C)N(CCCCc2ccccc2)C(=O)NC2(C(=O)O)CC(F)(F)C2)cc(OCC)c1C(N)=O (stereo not drawn) [Example 1-40, 1-({[1-(4-Carbamoyl-3,5-Diethoxyphenyl)Ethyl](4-Phenylbutyl) Carbamoyl}Amino)-3,3-Difluorocyclobutane-1-Carboxylic Acid] | 103 nM |
| CCOc1cc(C(COC)N(CCCCc2ccccc2)C(=O)NC2(C(=O)O)CC(F)(F)C2)cc(OCC)c1C (stereo not drawn) [Example 3-10] | 114 nM |
| CCOc1cc([C@@H](C)N(CCCc2ccccc2F)C(=O)NC2(C(=O)O)CC(F)(F)C2)cc(OCC)c1C [Example 4-4, 1-({[(1R)-1-(3,5-Diethoxy-4-Methylphenyl)Ethyl][3-(2-Fluorophenyl) Propyl]Carbamoyl}Amino)-3,3-Difluorocyclobutane-1-Carboxylic Acid] | 9.64 nM |
| C=C(C)c1c(OCC)cc(C(C)N(CCCCc2ccccc2)C(=O)NC2(C(=O)O)CC(F)(F)C2)cc1OCC (stereo not drawn) [Example 1-54] | 3.25 nM |
| CCOc1cc([C@@H](C)N(CCC(F)(F)Cc2ccccc2)C(=O)NC2(C(=O)O)CC(OCC)C2)cc(OCC)c1C(C)=O (stereo partly drawn) [Example 4-93] | 10.1 nM |
| CCOc1cc([C@@H](C)N(CCCCc2ccccc2)C(=O)NC2CC(C(=O)O)N(C(C)=O)C2)cc(OCC)c1C(C)=O (stereo partly drawn) [Example 1-164] | 38.4 nM |
| CCOc1cc(C(C)N(CCCCc2ccccc2)C(=O)NC2CCC(C(=O)O)CC2)cc(OCC)c1C (stereo not drawn) [Example 1-143] | 200 nM |
| CCOc1cc([C@@H](C)N(CCO[C@@H](C)c2ccccc2)C(=O)NC2(C(=O)O)CC2)cc(OCC)c1C(C)=O [Example 4-111] | 3.07 nM |
| CCOc1cc([C@@H](C)N(CCCCc2ccccc2)C(=O)NC2(C(=O)O)CC2)cc(OCC)c1C [Example 1-17] | 23.7 nM |
| CCOc1cc(C(C)N(CCCCc2ccccc2)C(=O)NC2(C(=O)O)CC(F)(F)C2)cc(OCC)c1C(O)C(F)(F)F (stereo not drawn) [Example 1-52] | 7.96 nM |
| CCOc1c(C(C)=O)ccc([C@@H](C)N(CCCC(F)(F)c2ccccc2)C(=O)NC2(C(C)=O)CC(OCC)C2)c1C (stereo partly drawn) [Example 4-71] | 8.06 nM |
| CCOc1cc([C@@H](C)N(CCC(F)(F)Cc2ccccc2)C(=O)NC2(C(=O)O)CC(F)(F)C2)cc(OCC)c1C(C)=O [Example 4-84] | 2.88 nM |
| CCOc1cc([C@@H](C)N(CC2CC(c3ccccc3)C2)C(=O)NC2(C(=O)O)CC(F)(F)C2)cc(OCC)c1C (stereo partly drawn) [Example 4-42] | 25.2 nM |
| CCOc1cc(C(C)N(CCCCc2ccccc2)C(=O)NC2(C(=O)O)CC(F)(F)C2)cc(OCC)c1C(=O)CC (stereo not drawn) [Example 1-58] | 4.24 nM |
| CCOc1cc(C(C)N(CCCc2cccc(C)c2)C(=O)NC2(C(=O)O)CC(F)(F)C2)cc(OCC)c1C (stereo not drawn) [Example 4-13] | 59.8 nM |
| CCOc1c(C2CC2)ccc([C@@H](C)N(CCO[C@@H](C)c2ccccc2)C(=O)NC2(C(=O)O)CCC2)c1C [Example 4-166] | 2.02 nM |
| CCOc1cc([C@@H](C)N(CCCCc2ccccc2)C(=O)NC(C(=O)O)C(C)O)cc(OCC)c1C (stereo partly drawn) [Example 1-11] | 352 nM |
| CCOc1cc([C@@H](C)N(CCOCc2ccccc2)C(=O)NC2(C(=O)O)CCOCC2)cc(OCC)c1C(C)=O [Example 4-110] | 4.31 nM |
| CCCCC(NC(=O)N(CCCCc1ccccc1)[C@H](C)c1cc(OCC)c(C)c(OCC)c1)C(=O)O (stereo partly drawn) [Example 1-4] | 25.5 nM |
| CCOc1cc([C@@H](C)N(CCCC(C)c2ccccc2)C(=O)NC2(C(=O)O)CC(F)(F)C2)cc(OCC)c1C (stereo partly drawn) [Example 4-40, 1-({[(1R)-1-(3,5-Diethoxy-4-Methylphenyl)Ethyl](4-Phenylpentyl) Carbamoyl}Amino)-3,3-Difluorocyclobutane-1-Carboxylic Acid] | 3.15 nM |
| CCOc1cc([C@@H](C)N(CC(=O)NCc2ccccc2)C(=O)NC2(C(=O)O)CC(F)(F)C2)cc(OCC)c1C [Example 4-163] | 384 nM |
| CCOc1cc(C(C)N(CCCCc2ccccc2)C(=O)NC2CCC[C@@H]2C(=O)O)cc(OCC)c1C (stereo partly drawn) [Example 1-137] | 102 nM |
| CCOC1CC(NC(=O)N(CCOCc2ccccc2)[C@H](C)c2cc(OC)c(C)c(OC)c2)(C(=O)O)C1 (stereo partly drawn) [Example 4-165] | 4.85 nM |
| CCOc1cc([C@@H](C)N(CCCCc2cccc(OC)c2)C(=O)NC2(C(=O)O)CC(F)(F)C2)cc(OCC)c1C [Example 4-18, 1-({[(1R)-1-(3,5-Diethoxy-4-Methylphenyl)Ethyl][4-(3-Methoxyphenyl)Butyl]Carbamoyl}Amino)-3,3-Difluorocyclobutane-1-Carboxylic Acid] | 18.1 nM |
| CCOc1cc([C@@H](C)N(CCC(F)(F)Cc2ccccc2)C(=O)NC2(C(=O)O)CC(F)(F)C2)cc(OCC)c1C1CC1 [Example 4-87] | 2.53 nM |
| CCOc1cc([C@@H](C)N(CCCC(F)(F)c2ccccc2)C(=O)NC2(C(=O)O)CC(OC)C2)cc(OCC)c1C(C)O (single isomer, unassigned) [Example 4-61] | 3.99 nM |
| CCOc1cc([C@@H](C)N(CCCc2ccc(F)cc2)C(=O)NC2(C(=O)O)CC(F)(F)C2)cc(OCC)c1C [Example 4-5] | 6.91 nM |
| CCOc1cc([C@@H](C)N(CCO[C@@H](C)c2ccccc2)C(=O)N[C@]2(C(=O)O)C[C@H](OC)C2)cc(OCC)c1C(C)=O [Example 4-122] | 4.53 nM |

Continued, values first:

| IC50 | SMILES |
| --- | --- |
| 5.6 nM | CCOc1cc(C(C)N(CCCCc2ccccc2)C(=O)NC2(C(=O)O)CC(F)(F)C2)cc2c1cnn2CC (stereo not drawn) [Example 5-99, 1-({[1-(4-Ethoxy-1-Ethyl-1H-Indazol-6-Yl)Ethyl](4-Phenylbutyl) Carbamoyl}Amino)-3,3-Difluorocyclobutane-1-Carboxylic Acid] |
| 128 nM | CCNc1cc(C(C)N(CCCCc2ccccc2)C(=O)NC2(C(=O)O)CCC2)cc(OCC)c1C(C)=O (single isomer, unassigned) [Example 5-111] |
| 2.91 nM | CCOc1cc([C@@H](C)N(CCO[C@@H](C)c2ccccc2)C(=O)NC2(C(=O)O)CC(OCC)C2)c(C)c(OCC)c1C(C)=O (stereo partly drawn) [Example 5-119] |
| 1.51 nM | CCNc1cc([C@@H](C)N(CCCCc2ccccc2)C(=O)NC2(C(=O)O)CC(F)(F)C2)cc(OCC)c1C(C)=O [Example 5-108] |
| 7.35 nM | CCNc1cc(C(C)N(CCCCc2ccccc2)C(=O)NC2(C(=O)O)CC(F)(F)C2)cc(OCC)c1C(C)=O (stereo not drawn) [Example 5-102] |
| 2.13 nM | CCOc1cc(C(C)N(CCOCc2ccccc2)C(=O)NC2(C(=O)O)CC(OCC)C2)c(Cl)c(OCC)c1C(C)=O (stereo not drawn) [Example 5-220] |
| 19.1 nM | COCc1cc(OC)cc(C(C)N(CCCCc2ccccc2)C(=O)NC2(C(=O)O)CC(F)(F)C2)c1 (stereo not drawn) [Example 5-14] |
| 79.7 nM | CCOc1cc(OCC)cc(C(C)N(CCCCc2ccccc2)C(=O)NC2(C(=O)O)Cc3ccccc3C2)c1 (stereo not drawn) [Example 5-11] |
| 2.82 nM | CCOc1cc(C(C)N(CCCCc2ccccc2)C(=O)NC2(C(=O)O)CC(F)(F)C2)ccc1C(C)O (stereo not drawn) [Example 5-9] |
| 2.48 nM | CCOc1cc(C(C)N(CCCCc2ccccc2)C(=O)NC(C)(C)c2nn[nH]n2)cc(OCC)c1C(C)=O (stereo not drawn) [Example 10-2] |
| 11 nM | CCOc1cc(C(C)N(CCCCc2ccccc2)C(=O)NC2(C(=O)O)CC(F)(F)C2)cc(OCC)n1 (stereo not drawn) [Example 5-86] |
| 4.33 nM | COc1cc([C@@H](C)N(CCOCc2ccccc2)C(=O)NC2(C(=O)O)CC(OC)C2)c(Cl)c(OC)c1C(C)=O (stereo partly drawn) [Example 5-123] |
| 15.1 nM | CCNc1cc([C@@H](C)N(CCCCc2ccccc2)C(=O)NC2(C(=O)O)CC(F)(F)C2)cc(O)c1C(C)=O [Example 5-112] |
| 43.5 nM | CCOc1cc([C@@H](C)N(CCC(F)(F)Cc2ccccc2)C(=O)N[C@]2(C(=O)O)C[C@@H](OCC)C2)c(C)c(OCC)c1C [Example 5-80] |
| 2.31 nM | CCOc1cc([C@@H](C)N(CCO[C@@H](C)c2ccccc2)C(=O)N[C@]2(C(=O)O)C[C@@H](OC)C2)c(Cl)c(OCC)c1C(C)=O [Example 5-28] |
| 3.84 nM | CCOc1cc([C@@H](C)N(CCO[C@@H](C)c2ccccc2)C(=O)N[C@]2(C(=O)O)C[C@H](OCC)C2)c(Cl)c(OCC)c1C(C)=O [Example 5-27] |
| 0.468 nM | CCOc1cc([C@@H](C)N(CCOCc2ccccc2)C(=O)NC2(C(=O)O)CC(F)(F)C2)c(Cl)c(OCC)c1C(C)=O [Example 5-38] |
| 10.1 nM | CCOc1cc(C(C)N(CCCCc2ccccc2)C(=O)NC2(C(=O)O)CC(F)(F)C2)c2c(c1)N(CC)CC2 (stereo not drawn) [Example 5-97] |
| 1.41 nM | CCOc1cc(C(C)N(CCOCc2ccccc2)C(=O)NC2(C(=O)O)CC(F)(F)C2)cc(OCC)c1C1CC1 (stereo not drawn) [Example 5-196] |
| 2.07 nM | CCOc1cc(C(C)N(CCOC(C)c2ccccc2)C(=O)NC2(C(=O)O)CCC2)c(Cl)c(OCC)c1C(C)=O (stereo not drawn) [Example 5-195] |
| 1.11 nM | COc1cc(C(C)N(CCOCc2ccccc2)C(=O)NC2(C(=O)O)CC(F)(F)C2)c(Cl)c(OC)c1C1CC1 (stereo not drawn) [Example 5-144] |
| 3.54 nM | COc1cc(C(C)N(CCOC(C)c2ccccc2)C(=O)NC2(C(=O)O)CC(OC)C2)cc(OC)c1C1CC1 (stereo not drawn) [Example 5-157] |
| 1040 nM | CCOC(=O)C1(NC(=O)N(CCO[C@@H](C)c2ccccc2)C(C)c2cc(OCC)c(C(C)=O)c(OCC)c2Cl)CC(OCC)C1 (stereo partly drawn) [Example 6-10] |
